Earlier results in patent publication US20130217743A1, “CANCER PREVENTION AND TREATMENT METHODS BASED ON DIETARY POLYAMINE CONTENT” (CANCER PREVENTION PHARMACEUTICALS, INC., priority 2010, published 2013).

Experiments:
[1] = system: prostoglandin E2 (PGE2) levels in flat mucosa; settings: 300 mg/day, one month
[2] = for mean half-life: in vivo
[3] = human, in vivo
[4] = system: tumors harboring Ki-ras mutations; settings: AOM-treated rats; reduced from 90%
tumor putrescine levels = settings: rat-tumor model, DFMO infusion

In the case of `CC(C)Cc1ccc(C(C)C(=O)O)cc1` (centres unmarked) [ibuprofen], the “PGE2 levels in flat mucosa” value [1] is listed as “significant decrease”.

In the case of `CC1=C(CC(=O)O)c2cc(F)ccc2/C1=C\c1ccc(S(C)(=O)=O)cc1` [Sulindac sulfone], the COX-inhibitory activity (COX) is listed as “lacks COX-inhibitory activity”.

In the case of `CC1=C(CC(=O)O)c2cc(F)ccc2/C1=C\c1ccc([S+](C)[O-])cc1` (centres unmarked) [sulindac, (Z)-5-fluoro-2-methyl-1-((4(methylsulfinyl)phenyl)methylene) 1H-indene-3-acetic acid], the drug absorbed ([2]; after oral administration) is given as “about 90%”, the “time to peak plasma levels” value ([2]; fasting patients) is given as “about 2 hours” and the mean half-life [2] is given as 7.8 h. The “mild gastrointestinal effects, patients” value [3] was roughly 20% and the “skin rash and pruritus, patients” value [3] was 5%.

For `CN1C(C(=O)Nc2ccccn2)=C(O)c2ccccc2S1(=O)=O` [piroxicam, 4-hydroxy-2-methyl-N-2-pyridyl-2H-1,2-benzothiazine-3-carboxamide 1,1-dioxide], the “number of tumors harboring Ki-ras mutations” value [4] is given as 25%.

For `NCCCC(N)(C(=O)O)C(F)F` (racemic) [DFMO, 2-(difluoromethyl)-dl-ornithine], the “decrease in tumor putrescine levels” value (tumor putrescine levels) is given as 90% and the “number of tumors harboring Ki-ras mutations” value [4] is given as 36%.

For `CSc1ccc(/C=C2/C(C)=C(CC(=O)O)c3cc(F)ccc32)cc1` [sulfide metabolite], the mean half-life [2] is listed as 16.4 h.
